One series concerns adult humans. To be noted: cited from earlier work.
The nature of series [1]: In vitro skin penetration of methyl salicylate in flow diffusion cell (Experiment 9). In kind it is in vitro ADME, pig.
Method: The emulsions contained 56% oil and 214 mg starch/ml oil (corresponding to sample M in experiment 8). The total volume was 7 ml and each experiment was performed in triplicate. Methyl salicylate, dissolved in the oil phase, was used as control substance for studying the permeability into the skin.
The skin diffusion measurement was performed in a flow cell by monitoring the transport of methyl salicylate from the three different topical formulations across pigskin membrane and silicone membrane under a flow of phosphate buffer with pH 6.8. The diffusion experiments were performed in seven-chamber diffusion cells at 32° C. and the donor and receptor phase were separated by a membrane with a diffusion area of 0.64 cm^2 (9 mm Ø). About 1 g of the emulsions (donor phase) were spread uniformly on the membranes. The cells were covered with parafilm to avoid evaporation. Buffer flowed through the pump (IsmatecIPN-16, L852) with a flow of 2 ml/h. Samples were collected every two hours during 12 hours and were analyzed using a spectrophotometer (Varian Carry 50Bio) at the detection wavelength for methyl salicylate (302 nm).

This is an account of results in patent US20150125498A1, “NEW PARTICLE STABILIZED EMULSIONS AND FOAMS” (SPEXIMO AB, priority 2010, published 2015).

As usually defined, the LD50 is the dose at which mortality reaches 50%.

Take `COC(=O)c1ccccc1O` [methyl salicylate, Methyl salicylate]: the LD50 in the series with adult humans is 500 mg/kg. For the same compound, in series [1] (pig skin, 32° C., 56% oil starch Pickering emulsions), the “Steady state flux of methyl salicylate” value was “around 8 μg/(cm2*h)”. The “Flux compared with buffer solutions of the same methyl salicylate concentration” value in series [1] (similar experimental set up observed previously) is “nearly two times higher”.
